Measurements as given in PubChem BioAssay (NCI).
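In this assay, cells in 96-well plates receive the compound at five concentrations for 48 hours. Endpoints are linearly interpolated between the surrounding concentrations. TGI: concentration producing complete growth inhibition.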

Tests used:
Assay in all cases: DTP human tumour cell line panel, 48 h
DMS 114 small cell lung = tested on: DMS 114 small cell lung
KM20L2 colon = tested on: KM20L2 colon
XF 498 CNS = tested on: XF 498 CNS
HOP-18 NSCLC = tested on: HOP-18 NSCLC
LXFL 529 NSCLC = tested on: LXFL 529 NSCLC
DLD-1 colon = tested on: DLD-1 colon
SNB-78 CNS = tested on: SNB-78 CNS
DMS 273 small cell lung = tested on: DMS 273 small cell lung
RXF-631 renal = tested on: RXF-631 renal

SMILES | TGI (DMS 114 small cell lung) | TGI (KM20L2 colon) | TGI (XF 498 CNS) | TGI (HOP-18 NSCLC) | TGI (LXFL 529 NSCLC) | TGI (DLD-1 colon) | TGI (SNB-78 CNS) | TGI (DMS 273 small cell lung) | TGI (RXF-631 renal)
Nn1c(NNC(=O)C(=O)Nc2cc(Cl)c(Cl)cc2Cl)n[nH]c1=S | > 100 µM | > 100 µM | > 100 µM | > 100 µM | > 100 µM | > 100 µM | > 100 µM | – | –
C=CC/C=C/Cc1csc(C(C)(C)C(O)C/C=C/C(=C)CCNC(=O)OC)n1 (stereo unspecified) | 2.91 µM | > 100 µM | > 100 µM | – | > 100 µM | > 100 µM | – | > 100 µM | –
O=C1C(Br)=CC2(C=C1Br)CCNC1=C2C(=O)c2ccccc2C1=O | 22.8 µM | 91.8 µM | – | > 100 µM | 35.1 µM | 28.4 µM | > 100 µM | – | 26.6 µM
Cc1csc(=S)n1OC(=O)NC1CCCCC1 | 44.7 µM | – | > 100 µM | – | > 24 µM | > 100 µM | > 100 µM | > 79.9 µM | –
O=C(COc1ccc2c(=O)cc(-c3ccccc3)oc2c1)N1CCN(c2ccccc2)CC1 | > 100 µM | > 100 µM | – | > 100 µM | > 100 µM | – | > 100 µM | – | –
CC1=C(C(=O)O)N2C(=O)[C@@H](NC(=O)C(c3ccc(O)cc3)N3CSC(=S)N(C(C)C)C3)C2SC1 (stereo partly specified) | > 100 µM | > 100 µM | > 100 µM | > 100 µM | > 100 µM | > 100 µM | > 100 µM | > 100 µM | –
COc1ccc(C2=Nc3ccccc3NC(=O)C2)cc1 | 59.7 µM | > 100 µM | 36.8 µM | > 100 µM | > 100 µM | > 100 µM | 70 µM | > 100 µM | > 100 µM
CC(C)[C@H]1CO[C@]2(C)[C@@H]3CN(Cc4ccccc4)C[C@@H]3C(=O)N12 | > 100 µM | > 100 µM | – | > 100 µM | > 100 µM | > 100 µM | – | > 100 µM | –
CC(=O)OCC1OC(OC2C(CSC3OC(COC(C)=O)C(OC(C)=O)C(OC(C)=O)C3OC(C)=O)OC(OC(C)=O)C(OC(C)=O)C2OC(C)=O)C(OC(C)=O)C(OC(C)=O)C1OC(C)=O (stereo unspecified) | > 100 µM | > 100 µM | > 100 µM | – | > 100 µM | > 100 µM | > 100 µM | > 100 µM | –
COc1cc(OC)c2c(c1)C(=O)C(CC(C)O)=CC2=O (stereo unspecified) | 9.21 µM | 31.8 µM | 27 µM | 30.4 µM | 26.1 µM | 28.5 µM | 32 µM | 37.6 µM | –
C[C@H](OCc1ccccc1)C(=O)N1CCS(=O)(=O)N2CCC[C@H]2C1=O | > 100 µM | > 100 µM | – | > 100 µM | > 100 µM | > 100 µM | > 100 µM | – | > 100 µM
